How the values were obtained:
Syn-A53T = molecular target: T1, Syn-A53T (Homo sapiens, UniProt P37840, A53T); experiment: Immunofluorescence staining of aggregated synuclein in transfected cells; type: cell-based; conditions: Syn-A53T vector 24 h, compound 5 µM for 24 h, pan-Syn antibody, FIG. 1C
T1 construct: FLAG; host or cells: SK-N-SH

Syn^A53T-Tg mice = experiment: In vivo treatment and histological analysis in Parkinson's disease (PD) mouse model
Experimental: Experiments were conducted in approved facility of Association for Assessment and Accreditation of Laboratory Animal Care in accordance with animal policies approved by Pusan National University. B6.Cg-Tg (Prnp-SNCAA53T)/J mice were obtained from Jackson Laboratory (Stock No: 006823). All mice were maintained under temperature- and light-controlled conditions (20-23°C, 12 h-12 h light/dark cycle) and provided with autoclaved food and water.
24 week-old Syn^A53T-Tg mice were administered vehicle (DMSO), PRG-A-03, and PRG-A-04 intraperitoneally twice a week for 24 to 26 weeks. Control mice were treated under the same conditions. Mice were sacrificed at 48-52 weeks of age for histological analysis. After cardiac perfusion with 4% paraformaldehyde, the brains were dissected and embedded in paraffin blocks according to standard tissue processing procedures. Embedded tissue ([…]) was cut into 5 µm sections using a tissue sectioner (Leica microtome) and transferred to adhesive-coated slides (Marienfeld laboratory glassware, Germany). For histological pathologic analysis of Syn^A53T-Tg mice, immunohistochemistry (IHC) using a dopaminergic neuronal marker (Tyrosine Hydroxylase) was performed after deparaffinization and rehydration. To monitor dopaminergic neurons by immunofluorescence (IF), dissected brains were embedded in agarose holders and sectioned with a vibratome. Thinly sliced tissues were treated with a blocking solution (normal donkey serum diluted 1:500 in 0.1% Triton X-100 PBS) for 1 h. Cells were incubated with anti-TH antibody (diluted 1:500) overnight at 4°C. Finally, cells were incubated with FITC-conjugated secondary antibody at 4°C for 2 h. Cells were washed three times with PBS, and coverslips were mounted using mounting solution (H-5501, Vector Laboratories), followed by analysis by fluorescence microscopy (Zeiss). […]

[1] = molecular target: T2, synuclein mutant (Syn-A53T) (Homo sapiens, UniProt P37840, A53T); experiment: Insoluble/soluble synuclein fractionation by Western blot in SK-N-SH cells transfected with MT-Syn (Syn-A53T); type: cell-based; conditions: treated for 24 h, pellet (insoluble) vs supernatant, FIG. 1B
T2 construct: FLAG; host or cells: SK-N-SH
Experimental: For SDS-PAGE, proteins were extracted from cells using RIPA buffer (50 mM Tris-Cl, pH 7.5, 150 mM NaCl, 1% NP-40, 0.1% SDS, and […] sodium deoxycholate). Samples were separated by SDS-PAGE and transferred to a PVDF membranes. The blotted membrane was blocked with 3% skim milk containing TBST buffer for 1 h and incubated with specific antibodies. Reacted antibodies were detected by ECL and X-ray film exposure. The antibody used in this experiment was pan-Syn (GTX112799), purchased from Genetex (California, USA). Actin antibody (66009-1-lg) and α-tubulin antibody (66240-1-lg) were obtained from Proteintech (Rosemont, IL, USA). Anti-FLAG (Sigma; F3165) from Sigma Aldrich (St, Louis, MO, USA) was used as a […], and HRP-conjugated goat anti-mouse, goat anti-rabbit, and mouse anti-goat antibodies (Pierce, Thermo Fisher Scientific, Inc., Rockford, IL, USA) were used. FLAG-Syn-WT and MT vectors were transfected into SK-N-SH cells for 24 h. […]
To identify the effect of the PRG-A compound on alpha-synuclein aggregation, the inventors transfected the FLAG-Syn-A30P vector into SK-N-SH cells for 24 h. […] Expression of synuclein was observed under a fluorescence microscope with a pan-Syn antibody (white arrow; high intensity of Syn).

normal human fibroblasts = experiment: Cell viability (MTT assay) in normal human fibroblasts; type: cell-based; conditions: 48 h; for cytotoxic effects (cell viability, MTT): normal human fibroblasts, FIG. 3
Experimental: SK-N-SH cells were purchased from the Korean Cell Line Bank (KCLB, Seoul, South Korea) and maintained in MEM medium containing 10% fetal bovine serum, 1% antibiotics, 25 mM HEPES, and 300 mg/L L-Glu. Human fibroblasts (person) were obtained from Coridll Cell Repositories (New Jersey, USA) and maintained in EMEM containing 15% FBS and 2 mM glutamine, along with 26 mM HEPES without antibiotics.
To investigate cell viability, cells were treated with chemicals (PRG-A compound) for 48 h. Then, the cells were incubated with 0.5 mg/ml 3-(4,5-dimethylthiazol-2-yl)-2,5-diphenyltetrazolium bromide (MTT) solution (475989; Merck, Darmstadt, Germany) at 37°C for 4 h. After removing the excess solution and washing with PBS, the precipitated substances were dissolved in 200 µl of DMSO and quantified by measuring the absorbance at 540 nm.
Lastly, to determine the toxicity of PRG-A compounds, normal human fibroblasts and neuroblastoma cells (SK-N-SH) were cultured with each compound for 48 h, and cell viability was measured via the MTT assay. The effect on survival rates of neuronal cells and normal fibroblasts was identified (FIG. 3).

CC1(C)Oc2cc3oc(=O)ccc3cc2C[C@@H]1O [Chem-001, decursinol]
Aggregated synuclein (immunofluorescence) (Syn-A53T): marginal effects

COc1cc(/C=C/CO[C@H]2Cc3cc4ccc(=O)oc4cc3OC2(C)C)ccc1[N+](=O)[O-] [PRG-A-04, (S,E)-7-((3-(3-methoxy-4-nitrophenyl)allyl)oxy)-8,8-dimethyl-7,8-dihydro-2H,6H-pyrano[3,2-g]chromen-2-one]
loss of dopaminergic neurons in the SN by IF staining using TH (Syn^A53T-Tg mice; intraperitoneal, 20 mg/kg or 40 mg/kg, 24 to 26 weeks, FIG. 2D): prevents the loss of dopaminergic neurons
insoluble synuclein [1]: reduce insoluble synuclein in a dose-dependent manner
cytotoxic effects (cell viability, MTT) (normal human fibroblasts): did not exhibit cytotoxic effects

COc1cc(/C=C/C(=O)O[C@H]2Cc3cc4ccc(=O)oc4cc3OC2(C)C)ccc1O [PRG-A-01, (S)-8,8-dimethyl-2-oxo-7,8-dihydro-2H,6H-pyrano[3,2-g]chromen-7-yl (E)-3-(4-hydroxy-3-methoxyphenyl)acrylate]
cytotoxic effects (cell viability, MTT) (normal human fibroblasts): did not exhibit cytotoxic effects

COc1cc(/C=C/CO[C@H]2Cc3cc4ccc(=O)oc4cc3OC2(C)C)ccc1O [PRG-A-02, (S,E)-7-((3-(4-hydroxy-3-methoxyphenyl)allyl)oxy)-8,8-dimethyl-7,8-dihydro-2H,6H-pyrano[3,2-g]chromen-2-one]
cytotoxic effects (cell viability, MTT) (normal human fibroblasts): did not exhibit cytotoxic effects

CC1(C)Oc2cc3oc(=O)ccc3cc2C[C@@H]1OC(=O)/C=C/c1ccc(F)cc1 [PRG-A-03, (S)-8,8-dimethyl-2-oxo-7,8-dihydro-2H,6H-pyrano[3,2-g]chromen-7-yl (E)-3-(4-fluorophenyl)acrylate]
phosphorylation of Tau in brain tissue (Syn^A53T-Tg mice; brain tissue of Syn-A53T Tg, FIG. 2C): suppresses phosphorylation of Tau
Dopaminergic neuron markers (Tyrosine Hydroxylase, TH) in the substantia nigra (SN), IHC (Syn^A53T-Tg mice; intraperitoneal, 20 mg/kg or 40 mg/kg, 24 to 26 weeks, FIG. 2B): maintained
impact on cell viability (MTT) (normal human fibroblasts; high doses (50 and 100 µM), cell type not given): low impact on cell viability

Reference: patent publication EP4751721A1, “COMPOSITION CONTAINING NOVEL COMPOUND FOR PREVENTING OR TREATING PARKINSON'S DISEASE” (PRG S&Tech Inc., priority 2023, dated 2025)
